According to paper PMC9322761, “Design, Synthesis and Biological Characterization of Histone Deacetylase 8 (HDAC8) Proteolysis Targeting Chimeras (PROTACs) with Anti-Neuroblastoma Activity” (International Journal of Molecular Sciences, 2022):

Tests used:
[1] = system: acetylated SMC3; experiment: Acetylation of HDAC8 substrate SMC3 in SK-N-BE(2)-C cells (Western blot); format: cell-based, human; conditions: 10 µM
Experimental: To test the degradation of HDAC8 with the developed PROTACs, we selected the most promising compounds obtained from the cellular neuroblastoma testing; namely CRBN_1b, CRBN_1d, CRBN_1e, HyT_1m, and HyT_1p. Whole cell lysates from treated SK-N-BE(2)-C neuroblastoma cells were taken and the protein levels for HDAC8 and the acetylation of its substrate SMC3 were determined (Figure 6). As a control for HDAC6, we also assessed acetylation levels of α-tubulin. […]. A clear dose-dependent degradation of HDAC8 by PROTAC CRBN_1e was observed (Figure 6C). After 48 h, the HDAC8 protein level was back to baseline, presumably due to de novo protein synthesis. […]. Western blot analysis was performed as described previously (Kolbinger et al.). […]
Figure 6 (A) SK-N-BE(2)-C neuroblastoma cells were treated for indicated time points with 10 µM of PROTACs. Degradation of HDAC8 and acetylation of HDAC8 target was analyzed via Western blot. […] Acetylation of HDAC8 target SMC3 and HDAC6 target tubulin, as well as total HDAC8 levels, were assessed by Western blot. Quantified ac-SMC3 or ac-tubulin expression, respectively, was normalized to the respective tubulin loading control and to the solvent control (DMSO). This quantification is reflected by the numbers below each blot. […] Total HDAC6, total HDAC1, total HDAC8, and acetyl-histone H4 expression levels, were assessed by Western blot. […]

[2] = molecular target: T1, HDAC6 (Homo sapiens, UniProt Q9UBN7); experiment: In vitro HDAC inhibitory activity assay, recombinant HDAC6 (fluorogenic substrate ZMAL); format: biochemical; design: purchased BPS Biosciences
T1 sequence (Q9UBN7 1-1215): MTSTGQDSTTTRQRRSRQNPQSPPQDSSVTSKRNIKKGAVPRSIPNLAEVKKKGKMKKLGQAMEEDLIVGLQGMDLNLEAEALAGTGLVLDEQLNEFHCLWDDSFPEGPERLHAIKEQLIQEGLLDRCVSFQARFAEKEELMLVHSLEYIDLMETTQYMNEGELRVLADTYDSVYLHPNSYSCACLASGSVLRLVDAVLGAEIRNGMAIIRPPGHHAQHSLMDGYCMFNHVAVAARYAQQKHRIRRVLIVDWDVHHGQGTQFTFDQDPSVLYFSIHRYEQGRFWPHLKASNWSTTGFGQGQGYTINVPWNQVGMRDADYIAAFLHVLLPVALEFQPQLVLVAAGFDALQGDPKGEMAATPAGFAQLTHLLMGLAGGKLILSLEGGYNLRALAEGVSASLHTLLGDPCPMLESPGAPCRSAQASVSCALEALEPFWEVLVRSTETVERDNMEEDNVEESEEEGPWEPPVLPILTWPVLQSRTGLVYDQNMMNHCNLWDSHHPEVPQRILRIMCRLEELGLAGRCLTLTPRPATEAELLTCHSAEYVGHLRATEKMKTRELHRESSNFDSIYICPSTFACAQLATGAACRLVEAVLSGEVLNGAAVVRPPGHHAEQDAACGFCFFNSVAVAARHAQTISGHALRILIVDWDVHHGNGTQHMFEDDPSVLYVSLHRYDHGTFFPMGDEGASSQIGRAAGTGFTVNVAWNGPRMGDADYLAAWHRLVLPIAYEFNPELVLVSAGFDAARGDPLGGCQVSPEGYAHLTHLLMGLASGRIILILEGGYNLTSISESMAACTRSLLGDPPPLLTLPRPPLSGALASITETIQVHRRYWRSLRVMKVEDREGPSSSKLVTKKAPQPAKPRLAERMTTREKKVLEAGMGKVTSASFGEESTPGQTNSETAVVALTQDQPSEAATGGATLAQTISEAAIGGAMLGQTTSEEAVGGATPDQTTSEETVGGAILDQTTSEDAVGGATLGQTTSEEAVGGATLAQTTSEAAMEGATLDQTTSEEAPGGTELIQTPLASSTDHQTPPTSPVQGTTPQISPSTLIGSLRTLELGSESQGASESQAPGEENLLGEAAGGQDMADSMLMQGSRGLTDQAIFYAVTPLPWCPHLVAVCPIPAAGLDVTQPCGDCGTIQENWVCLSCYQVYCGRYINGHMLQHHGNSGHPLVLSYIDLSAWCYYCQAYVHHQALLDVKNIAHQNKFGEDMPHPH
Experimental: The in vitro testing on recombinant HDACs was performed as previously described. Recombinant human HDAC1 and −6 were purchased from BPS Biosciences. The enzyme inhibition was determined by using a reported homogenous fluorescence assay. […] Fluorescence intensity was measured at an excitation wavelength of 390 nm and an emission wavelength of 460 nm in a microtiter plate reader (BMG Polarstar).
Inhibition was measured at increasing concentration and IC50 was calculated by nonlinear regression with Origin 9.0G software.

[3] = system: IMR-32 cells; experiment: Cell viability / proliferation (trypan blue, viable cell count) in neuroblastoma cells; format: cell-based, human; conditions: 5 and 10 µM
Experimental: Moreover, we treated neuroblastoma IMR-32 cells with the remaining PROTACs and counted the resulting viable cells. We quantified the percentage of dead cells as shown in (Figure 5B,C). In addition, cell proliferation was assessed via counting of viable cells (Figure 5D,E). […] As reference, the HDAC8 inhibitor PCI-34501 was used.
Adherent cells were detached using trypsin–EDTA (ThermoFisher Scientific, Bremen, Germany) and pooled with corresponding supernatant, centrifuged, and resuspended in 1 mL of cell culture medium. Cell viability (viable cell number, % viability, % dead cells) was measured by automated trypan blue staining using the Vi-Cell XR Cell Viability Analyzer (Beckman Coulter, Krefeld, Germany).
Figure 5 (A) Neuroblastoma SK-N-BE(2)-C cells; Colony Assay, 10 days (compound treatment within first 96 h). Stained with crystal violet and quantified with ImageJ. (B,C) Trypan Blue assay for detection of dead cells. Neuroblastoma IMR-32 cells were either treated with 5 µM (B) or 10 µM (C). (D,E) Cell proliferation assessed via counting of viable cells. IMR-32 cells were either treated with 5 µM (D) or 10 µM (E) PROTACs. HDAC8i PCI-34501 served as a positive control, untreated (MEM) and solvent (DMSO) treated cells served as negative controls.

inhibition at 1 µM ([2]; 1 µM, read-out: HDAC6 % inhib. at given conc.) [%]	inhibition at 10 µM ([2]; 10 µM, read-out: HDAC6 % inhib. at given conc.) [%]	SMILES	Hyperacetylation of HDAC8 substrate SMC3 [1]	HDAC6 inhibitory activity ([2]; negative control)	Effect in cell proliferation assay (viable cell count) [3]	IC50 [2] [nM]
–	–	COC(=O)c1ccc(C)c(NCc2ccc(OCc3cn(CCCCCC(=O)Nc4cccc5c4C(=O)N(C4CCC(=O)NC4=O)C5=O)nn3)cc2)c1 (stereo not shown) [33a]	did not show hyperacetylation	did not demonstrate a strong inhibitory activity	–	–
–	–	COc1ccc(C(=O)NO)cc1NC(=O)c1ccc(NC(=O)CCCCCCCNc2cccc3c2C(=O)N(C2CCC(=O)NC2=O)C3=O)cc1 (stereo not shown) [CRBN_1b]	–	–	strongest effect	560 ± 100
12.4	72.8	O=C(COc1ccc(CNc2cc(C(=O)NO)ccc2Cl)cc1)NCCCCCNC(=O)CC12CC3CC(CC(C3)C1)C2 [HyT_1p]	–	–	strongest effect	–
